How the values were obtained:
CCR3 = CCR3 bioimaging: fundus angiography after intravenous injection; type: in vivo, mouse; settings: wild-type and Ccl2−/−×Ccr2−/− mice
Experimental: CCR3 bioimaging. F(ab) fragments were created from monoclonal IgG2a antibody raised against the extracellular domain of murine CCR3 (R&D Systems) and an isotype rat IgG2a (R&D Systems) using a commercially available papain-based kit (Pierce). Recovered fragments were conjugated with quantum dots (Invitrogen, QDot-800) and resuspended in sterile PBS. Ccl2^−/−×Ccr2^−/− mice were administered 100 μg of tagged CCR3 F(ab) or isotype F(ab) via tail vein injection after acquiring baseline fluorescent imaging using a Topcon retinal camera (TRC-50IX). Serial images were then acquired at 1, 4, and 12 h after which eyes were harvested and frozen in OCT for immunofluorescent analyses. Retinal images were analyzed (ImageNet, Topcon) by comparison to baseline and fluorescein angiographic data. Hyperfluorescent areas were then cropped, equally thresholded, and pseudocolored (Photoshop CS3, Adobe). Sections from QDot-conjugated CCR3 or rat IgG2a isotype F(ab) injected animals were fixed in 4% paraformaldehyde and blocked with 5% normal donkey serum/5% goat serum in PBS, stained with rat anti-mouse CD31 (BD Biosciences) and either rabbit anti-mouse CCR3 (Santa Cruz) or rabbit anti-Ki67 (Abcam) followed by appropriate fluorescent secondary antibodies (Alexa Fluor 488/594, Invitrogen), and evaluated by confocal laser scanning microscopy (Leica SP-5).

human CECs [1] = assay: Proliferation assay (BrdU ELISA); type: cell-based; settings: 24 h stimulation; CCL11 10 ng/ml, CCL24 100 ng/ml, CCL26 2 μg/ml; versus BSA
Experimental: Proliferation assay. Human CECs were synchronized for cell cycle state by first cultivating them in EGM2-MV media (Lonza) supplemented with 10% FBS (Gibco) to achieve complete confluence and then by overnight serum starvation in MCDB131 media (Gibco) with 0.1% FBS. They were passaged to 96-well plates at a density of 5,000 cells per well, followed by stimulation for 24 h with eotaxin-1, 2 or 3 (10 ng, 100 ng and 2 μg per ml, respectively; Peprotech) in MCDB131 media with 0.1% FBS. After 24 h, cell viability was measured with BrdU ELISA (Chemicon) according to manufacturer's instructions.

human CECs [2] = assay: F-actin polymerization assay; type: cell-based; settings: CCL11 10 ng/ml, CCL24 100 ng/ml, CCL26 2 μg/ml; versus PBS
Experimental: F-actin Polymerization Assay. Human CECs were seeded in black-walled 96-well plates and grown to 70-80% confluence in fully supplemented EGM-2MV. Cultures were serum starved overnight in basal media and then stimulated with recombinant human eotaxin-1 (10 ng/ml), eotaxin-2 (100 ng/ml), eotaxin-3 (2 μg/ml) (Peprotech), or vehicle control (PBS). At 0, 10, 30, 60, or 120 sec time-points, cells were fixed in 3.7% paraformaldehyde for 10 min, washed, permeabilized in PBS with 0.1% Triton-X, and then stained with rhodamine labelled Phalloidin (1:200, Invitrogen) per manufacturer's recommendations. Plates were analyzed on a fluorescent plate reader (Synergy 4, Biotek) followed by fluorescent microscopy (Nikon E800).

Rac-1 = Rac-1 activation pull-down assay; type: cell-based; settings: human CECs; CCL11 10 ng/ml, CCL24 100 ng/ml, CCL26 2 μg/ml; versus unstimulated (0 s) cells
Experimental: Rac-1 activation. Human CECs were cultured in EGM-2 MV containing 5% FBS. Prior to starting the assay, cells were serum starved with basal medium (MCDB131) supplemented with 1% FBS overnight. Cells were stimulated for designated times with Eotaxin-1, 2 and 3 (10 ng/ml, 100 ng/ml and 2 μg/ml respectively). Equal amounts of lysates (500 μg) were incubated with GST-Pak1-PBD agarose beads (Upstate) to pull-down active GTP-bound Rac-1 at 4° C. for 1 h with rotation. The samples were subsequently analyzed for bound Rac-1 by western blot analysis using an anti-Rac-1 antibody (Upstate).

laser-induced CNV [3] = assay: Laser-induced CNV in wild-type mice; type: in vivo, mouse; settings: single intraocular administration after laser injury, versus isotype IgG or vehicle
Experimental: (§1) Mouse model of CNV. Laser photocoagulation (OcuLight GL, Iridex Corporation) was performed on mouse eyes to induce CNV, and CNV volumes were measured 7 days after injury by scanning laser confocal microscope (TCS SP, Leica) as previously described (Kleinman, et al., Nature. 452, 591-597 (2008)). Drug injections. Rat IgG2a neutralizing antibody against mouse CCR3 (R&D Systems), control rat IgG2a (Serotec), goat neutralizing antibody against mouse CCL11 (R&D Systems), goat neutralizing antibody against mouse CCL24 (R&D Systems), control goat IgG (Jackson Immunoresearch), or (S)-Methyl-2-naphthoylamino-3-(4-nitrophenyl)propionate (SB328437; Calbiochem) dissolved in DMSO were injected into the vitreous humor using a 33-gauge double-calibre needle (Ito Corporation) once, immediately after laser injury as previously described (Kleinman, et al., (2008) supra).
Drug injections. […]

laser-induced CNV [4] = assay: Laser-induced CNV in Ccr3−/− mice (specificity of CCR3 blockade); type: in vivo, mouse; settings: n=5, P>0.1
Experimental: as §1
Animals. All animal experiments were in accordance with the guidelines of the University of Kentucky IACUC and the Association for Research in Vision and Ophthalmology. C57BL/6J and Kit^W-v/Kit^W-v mice were purchased from The Jackson Laboratory. […]

retina = assay: Retinal toxicity by fundus imaging and electroretinography; type: in vivo; settings: wild-type mice, fundus imaging and electrophysiological function; anti-VEGF-A: repeated intravitreous administration
Experimental: Electroretinography. Mice were dark adapted overnight and then anesthetized. Both eyes were positioned within a ColorBurst Ganzfeld stimulator (Diagnosys). Espion software (Diagnosys) was used to program a fully automated flash intensity series from which retinal responses were recorded.

O=C([O-])c1ccccc1-c1c2ccc(=O)cc-2oc2cc([O-])ccc12.[Na+].[Na+] [sodium fluorescein]
hyperfluorescence indicative of CNV on fluorescein angiography (CCR3): no areas of hyperfluorescence indicative of CNV

CCL26: CCR3 ligand eotaxin-3, recombinant human (Peprotech)
human CEC proliferation (human CECs [1]): induced human CEC proliferation
actin polymerization in human CECs (human CECs [2]): induced actin polymerization
active (GTP-bound) Rac-1 GTPase levels (Rac-1): increased levels of activate Rac-1 GTPase

(S)-Methyl-2-naphthoylamino-3-(4-nitrophenyl)propionate [SB328437]
laser-induced CNV (effect in words) (laser-induced CNV [3]): reduced
laser-induced CNV (effect in words) (laser-induced CNV [3]; listed as (S)-Methyl-2-naphthoylamino-3-(4-nitrophenyl)propionate): suppressed laser injury-induced CNV in wild-type mice in a dose-dependent fashion
CNV in Ccr3−/− mice (laser-induced CNV [4]): 109±16 % of control
retinal toxicity (retina): neither CCR3 Ab nor CCR3 receptor antagonist induced retinal toxicity

CCL11: CCR3 ligand eotaxin-1, recombinant human (Peprotech)
human CEC proliferation (human CECs [1]): induced human CEC proliferation
actin polymerization in human CECs (human CECs [2]): induced actin polymerization
active (GTP-bound) Rac-1 GTPase levels (Rac-1): increased levels of activate Rac-1 GTPase

B1: CCL24: CCR3 ligand eotaxin-2, recombinant human (Peprotech) (protein, UniProt O00175 27-119, looked up)
C-C motif chemokine 24: VVIPSPCCMFFVSKRIPENRVVSYQLSSRSTCLKAGVIFTTKKGQQFCGDPKQEWVQRYMKNLDAKQKKASPRARAVAVKGPVQRYPGNQTTC
human CEC proliferation (human CECs [1]): induced human CEC proliferation
actin polymerization in human CECs (human CECs [2]): induced actin polymerization
active (GTP-bound) Rac-1 GTPase levels (Rac-1): increased levels of activate Rac-1 GTPase

From US8778616B2, “Method of using CCR3 binding agents to detect choroidal neovascularization” (University of Kentucky Research Foundation, priority 2009, dated 2014)
